# Laboratory results reported in US10766862B2, “Crystal form and salt form of and preparation method for tyrosine kinase inhibitor” (GUANGDONG RAYNOVENT BIOTECH CO., LTD., priority 2016, dated 2020).
# Legend:
# VEGFR2 = target: T1, VEGFR2 (Homo sapiens, UniProt P35968); experiment: Z'-LYTE Detection Kinase Assay, VEGFR2 enzyme reaction; type: biochemical
# T1 construct: purchased Life technology
# Description: (§1) It is to evaluate the inhibitory effect of the compound on three kinases VEGFR2, FGFR1, PDGFRB by detecting the enzyme activity in accordance with Z′-LYTE™ Detection Kinase Assay and using the ICso value of the compound as the index.
# (§2) Recombinant human VEGFR2 and FGFR1 proteins are purchased from Life technology, and PDGFRB proteinase is purchased from Millipore.
# (§3) Z-LYTE™ Kit Tyr1 and Tyr4 are purchased from Life technology.
# (§4) Read with Multimode Microplate Reader Envision (PerkinElmer).
# (§5) The compound to be test was subject to a 3-fold concentration gradient dilution to 11 final concentrations ranging from 10 μM to 0.17 nM 11 with two duplicate wells per concentration. The concentration of DMSO was 1% in the test reaction.
# 3 nM VEGFR2 protein kinase, 2 μM Tyr1 peptide, 100 μM ATP, 50 mM HEPES (pH 7.5), 10 mM MgCl2, 1 mM EGTA, 0.01% BRIJ-35. The test plate is Black Proxiplate 384-Plus plate (PerkinElmer). The reaction runs at room temperature for 60 minutes, and the reaction system is 10 μL.
# (§6) 5 μL of DV reagent B (1:128) was added to the kinase reaction mixture to stopped the reaction. The reaction mixture was incubated at 23° C. for 60 minutes, and read by Envision.
# (§7) The data were converted to the phosphorylation rate and the inhibition rate. The parameter curve was fitted (Model 205 in XLFIT5, iDBS) to obtain the ICso data of the compound.
# FGFR1 = target: T2, FGFR1 (Homo sapiens, UniProt P11362); experiment: Z'-LYTE Detection Kinase Assay, FGFR1 enzyme reaction; type: biochemical
# T2 construct: purchased Life technology
# T2 sequence (P11362 22-822): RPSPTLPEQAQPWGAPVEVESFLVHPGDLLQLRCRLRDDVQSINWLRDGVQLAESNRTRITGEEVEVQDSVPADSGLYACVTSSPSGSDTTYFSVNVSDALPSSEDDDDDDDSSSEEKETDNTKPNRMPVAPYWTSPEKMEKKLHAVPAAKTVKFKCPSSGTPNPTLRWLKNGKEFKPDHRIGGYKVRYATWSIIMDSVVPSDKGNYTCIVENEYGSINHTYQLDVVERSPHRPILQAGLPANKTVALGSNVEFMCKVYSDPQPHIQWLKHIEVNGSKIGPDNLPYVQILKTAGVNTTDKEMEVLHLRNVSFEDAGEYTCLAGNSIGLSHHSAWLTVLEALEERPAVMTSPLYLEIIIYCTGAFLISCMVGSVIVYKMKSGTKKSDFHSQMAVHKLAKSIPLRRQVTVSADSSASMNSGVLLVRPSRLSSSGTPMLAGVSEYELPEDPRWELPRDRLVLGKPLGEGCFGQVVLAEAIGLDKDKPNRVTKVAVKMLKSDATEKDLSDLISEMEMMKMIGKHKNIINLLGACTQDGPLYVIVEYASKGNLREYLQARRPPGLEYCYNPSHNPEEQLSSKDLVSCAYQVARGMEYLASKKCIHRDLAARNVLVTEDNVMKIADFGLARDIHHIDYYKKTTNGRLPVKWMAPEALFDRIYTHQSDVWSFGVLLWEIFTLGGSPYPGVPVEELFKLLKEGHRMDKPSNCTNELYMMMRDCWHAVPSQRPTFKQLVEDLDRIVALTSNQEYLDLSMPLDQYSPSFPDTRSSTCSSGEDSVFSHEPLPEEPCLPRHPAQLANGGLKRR
# Description: as §1, §2, §3, §4, §5
# 1 nM FGFR1 protein kinase, 2 μM Tyr4 peptide, 25 μM ATP, 50 mM HEPES (pH 7.5), 10 mM MgCl2, 1 mM EGTA, 0.01% BRIJ-35, 2 mM MnCl2, 1 mM DTT. The test plate is Black Proxiplate 384-Plus plate (PerkinElmer). The reaction runs at room temperature for 60 minutes, and the reaction system is 10 μL.
# as §6, §7
# PDGFRB = target: T3, PDGFRB (Homo sapiens, UniProt P09619); experiment: Z'-LYTE Detection Kinase Assay, PDGFRB enzyme reaction; type: biochemical
# T3 construct: purchased Millipore
# T3 sequence (P09619 33-1106): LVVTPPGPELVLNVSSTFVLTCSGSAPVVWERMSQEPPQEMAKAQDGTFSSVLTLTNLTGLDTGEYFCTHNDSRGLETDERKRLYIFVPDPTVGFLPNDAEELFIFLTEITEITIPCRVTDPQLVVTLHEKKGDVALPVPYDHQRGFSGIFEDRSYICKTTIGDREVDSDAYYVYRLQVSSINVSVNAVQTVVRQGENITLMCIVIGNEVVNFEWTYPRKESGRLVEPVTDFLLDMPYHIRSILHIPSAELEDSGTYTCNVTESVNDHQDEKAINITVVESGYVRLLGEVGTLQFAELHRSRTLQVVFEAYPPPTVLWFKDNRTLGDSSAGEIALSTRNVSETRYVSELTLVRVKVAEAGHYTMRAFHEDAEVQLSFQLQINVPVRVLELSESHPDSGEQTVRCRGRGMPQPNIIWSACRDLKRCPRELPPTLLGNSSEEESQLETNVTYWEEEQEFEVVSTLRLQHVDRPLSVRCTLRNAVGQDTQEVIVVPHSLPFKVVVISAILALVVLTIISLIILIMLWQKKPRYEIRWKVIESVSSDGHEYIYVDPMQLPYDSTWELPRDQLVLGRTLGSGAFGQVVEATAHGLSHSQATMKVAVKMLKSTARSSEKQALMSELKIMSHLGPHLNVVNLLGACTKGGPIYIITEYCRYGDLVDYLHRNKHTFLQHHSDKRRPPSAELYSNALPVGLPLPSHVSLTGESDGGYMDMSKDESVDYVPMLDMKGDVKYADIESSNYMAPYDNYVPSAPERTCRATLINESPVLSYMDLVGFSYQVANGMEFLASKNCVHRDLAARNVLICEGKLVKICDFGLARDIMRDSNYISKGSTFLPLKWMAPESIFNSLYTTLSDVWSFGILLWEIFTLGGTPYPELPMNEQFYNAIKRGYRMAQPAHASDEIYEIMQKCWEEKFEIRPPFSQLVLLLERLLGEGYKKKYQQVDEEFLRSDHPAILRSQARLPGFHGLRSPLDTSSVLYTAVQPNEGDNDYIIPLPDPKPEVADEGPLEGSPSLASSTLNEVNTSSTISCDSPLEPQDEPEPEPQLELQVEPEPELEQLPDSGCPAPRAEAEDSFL
# Description: as §1, §2, §3, §4, §5
# 40 nM PDGFRB protein kinase, 2 μM Tyr4 peptide, 100 μM ATP, 50 mM HEPES (pH 7.5), 10 mM MgCl2, 1 mM EGTA, 0.01% BRIJ-35, 2 mM MnCl2, 1 mM DTT. The test plate is Black Proxiplate 384-Plus plate (PerkinElmer). The reaction runs at room temperature for 60 minutes, and the reaction system is […].
# as §6, §7
# HUVEC = experiment: CellTiter-Glo Luminescent Cell Viability Assay on HUVEC stimulated with hVEGF-165; type: cell-based; conditions: Homo sapiens, hVEGF-165 20 ng/ml, 72 hr
# Protocol: It is to detect the intracellular ATP change by CellTiter-Glo® Luminescent Cell Viability Assay, and evaluate the inhibitory effect of the compound on in vitro cell HUVEC with ICso value of the compound as the index.
# HUVEC cell lines (ATCC), EGM-2 BulletKit (Lonza), hVEGF-165 (Cell Signaling), pancreatin (Invitrogen), DPBS (Hyclone), 384-well cell plate (Greiner), 384-well compound plate (Greiner), CO2 incubator (Thermo), centrifuger (Eppendorf), Vi-cell Cell Count (Beckman Coulter), Bravo Automated Liquid Handing Platform (Agilent), Envision (Perkin Elmer)
# Test Method • A. Cells recovery and growth. • B. Cell planking: HUVEC cells were re-suspended with a fasted media (containing only 2% FBS and 0.1% GA-1000), and diluted to a concentration of 20,000/mL. The diluted cells were added into 384-well plate (Greiner) with 50 μL/well. The cell plate was placed in an incubator containing 5% CO2 at 37° C. overnight. • C. Compound Addition: The compound to be tested was subject to a 4-fold gradient dilution to 10 samples having a final concentration ranging from 10 μM to 0.038 nM with two duplicate wells per concentration. […] The mixture was incubated at room temperature for 10-30 minutes, and read with Envision. […]
# [1] = 100 μM ATP, 60 minutes, room temperature
# T1 sequence (P35968 20-1356): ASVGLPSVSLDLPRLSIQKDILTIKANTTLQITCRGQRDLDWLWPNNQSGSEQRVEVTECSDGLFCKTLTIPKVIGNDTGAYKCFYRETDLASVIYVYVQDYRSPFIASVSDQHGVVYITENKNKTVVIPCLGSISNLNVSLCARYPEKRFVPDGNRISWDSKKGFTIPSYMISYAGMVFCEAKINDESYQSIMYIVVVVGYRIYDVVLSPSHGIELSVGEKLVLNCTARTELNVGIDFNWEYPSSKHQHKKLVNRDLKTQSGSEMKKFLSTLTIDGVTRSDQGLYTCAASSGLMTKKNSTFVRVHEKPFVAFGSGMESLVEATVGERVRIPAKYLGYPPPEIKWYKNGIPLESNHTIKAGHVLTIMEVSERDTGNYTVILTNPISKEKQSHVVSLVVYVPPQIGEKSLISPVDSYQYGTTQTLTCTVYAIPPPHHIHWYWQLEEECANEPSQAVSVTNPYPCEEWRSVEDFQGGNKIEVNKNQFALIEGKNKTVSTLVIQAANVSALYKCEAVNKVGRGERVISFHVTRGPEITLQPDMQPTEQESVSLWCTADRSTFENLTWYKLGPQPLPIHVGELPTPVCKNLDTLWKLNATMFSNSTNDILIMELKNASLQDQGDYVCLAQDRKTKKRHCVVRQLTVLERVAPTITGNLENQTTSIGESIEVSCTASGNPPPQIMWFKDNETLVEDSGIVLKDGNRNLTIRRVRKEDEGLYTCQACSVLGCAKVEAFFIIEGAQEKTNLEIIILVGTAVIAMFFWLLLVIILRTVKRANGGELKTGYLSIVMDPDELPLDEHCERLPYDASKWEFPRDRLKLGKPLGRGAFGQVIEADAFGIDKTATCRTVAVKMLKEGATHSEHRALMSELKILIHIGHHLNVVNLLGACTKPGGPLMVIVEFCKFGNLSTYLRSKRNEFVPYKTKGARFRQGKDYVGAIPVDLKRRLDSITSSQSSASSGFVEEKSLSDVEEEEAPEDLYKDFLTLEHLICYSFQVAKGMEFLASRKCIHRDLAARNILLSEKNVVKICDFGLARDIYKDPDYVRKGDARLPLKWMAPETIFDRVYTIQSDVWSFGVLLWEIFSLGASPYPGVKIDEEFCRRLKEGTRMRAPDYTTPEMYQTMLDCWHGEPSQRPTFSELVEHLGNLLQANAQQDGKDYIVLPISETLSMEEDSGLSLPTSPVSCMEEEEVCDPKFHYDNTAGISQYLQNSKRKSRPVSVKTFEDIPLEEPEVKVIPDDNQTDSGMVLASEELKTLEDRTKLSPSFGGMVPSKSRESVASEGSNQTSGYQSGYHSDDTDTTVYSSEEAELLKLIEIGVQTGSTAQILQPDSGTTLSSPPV
compound,measurement,setting,value
COc1cc2nccc(Oc3ccc(NC(=S)NC4CC4)c(Cl)c3F)c2cc1C(N)=O [Compound 1],"Inhibitory activity on VEGFR2 in vitro, conclusion in words",VEGFR2,superior inhibitory activity
same,IC50,VEGFR2; [1],< 50 nM
same,"Inhibitory activity on FGFR1 in vitro, conclusion in words",FGFR1,superior inhibitory activity
same,IC50,"FGFR1; 25 μM ATP, 60 minutes, room temperature",50 to 200 nM
same,"Inhibitory activity on PDGFRB in vitro, conclusion in words",PDGFRB,superior inhibitory activity
same,IC50,PDGFRB; [1],< 50 nM
same,IC50,HUVEC,< 100 nM
